Consider 3 compounds from US20100317687A1, “2-BENZOYLIMIDAZO[1,2-a]PYRIDINE DERIVATIVES, PREPARATION THEREOF AND THERAPEUTIC USE THEREOF” (sanofi-aventis, priority 2008, published 2010).

The assay concerns the target T1, mouse Nurr1 receptor (Mus musculus, UniProt Q06219).
T1 construct: a cell line (N2A) endogenously expressing the mouse Nurr1 receptor; host or cells: Neuro-2A (N2A) mouse neuroblastoma cells stably transfected with 8NBRE-luciferase
As to the kind of experiment: In vitro activity on N2A cells (NBRE-luciferase reporter). Type of assay: cell-based. Conditions: N2A-8NBRE cells, 24 hours incubation. Here is the method: The activity of the compounds according to the invention was evaluated on a cell line (N2A) endogenously expressing the mouse Nurr1 receptor and stably transfected with the NOT binding response element (NBRE) coupled to the luciferase reporter gene. The EC50 values are between 0.01 and 1000 nM. The tests were carried out according to the procedure described below.
The Neuro-2A cell line comes from a standard commercial source (ATCC). The Neuro-2A clone was obtained from a spontaneous tumour originating from a mouse A albino strain produced by R. J Klebe et al. This Neuro-2A line is subsequently stably transfected with 8NBRE-luciferase. The N2A-8NBRE cells are cultured at a confluence in 75 cm^2 culture flasks containing DMEM supplemented with 10% of foetal calf serum, 4.5 g/l of glucose and 0.4 mg/ml of geneticin. After one week of culture, the cells are recovered with 0.25% trypsin for 30 seconds, and then resuspended in DMEM without phenol red, containing 4.5 g/l of glucose and 10% of Hyclone defatted serum, and deposited in white, transparent-bottom, 96-well plates. The cells are deposited in a proportion of 60 000 per well in 75 μl for 24 hours before the addition of the products. The products are applied in 25 μl and incubated for a further 24 hours. On the day of the measurement, an equivalent volume (100 μl) of Steadylite, is added to each well, followed by a waiting period of 30 minutes in order to obtain complete lysis of the cells and maximum production of the signal. The plates are then measured in a microplate luminescence counter after having been sealed with an adhesive film. The products are prepared in the form of a stock solution at 10^−2 M, and then diluted in 100% of DMSO. Each product concentration is diluted beforehand in culture medium before incubation with the cells thus containing a final concentration of 0.625% of DMSO.
Background: A reporter such as luciferase makes a cellular process visible.

T1 sequence (Q06219 whole entry): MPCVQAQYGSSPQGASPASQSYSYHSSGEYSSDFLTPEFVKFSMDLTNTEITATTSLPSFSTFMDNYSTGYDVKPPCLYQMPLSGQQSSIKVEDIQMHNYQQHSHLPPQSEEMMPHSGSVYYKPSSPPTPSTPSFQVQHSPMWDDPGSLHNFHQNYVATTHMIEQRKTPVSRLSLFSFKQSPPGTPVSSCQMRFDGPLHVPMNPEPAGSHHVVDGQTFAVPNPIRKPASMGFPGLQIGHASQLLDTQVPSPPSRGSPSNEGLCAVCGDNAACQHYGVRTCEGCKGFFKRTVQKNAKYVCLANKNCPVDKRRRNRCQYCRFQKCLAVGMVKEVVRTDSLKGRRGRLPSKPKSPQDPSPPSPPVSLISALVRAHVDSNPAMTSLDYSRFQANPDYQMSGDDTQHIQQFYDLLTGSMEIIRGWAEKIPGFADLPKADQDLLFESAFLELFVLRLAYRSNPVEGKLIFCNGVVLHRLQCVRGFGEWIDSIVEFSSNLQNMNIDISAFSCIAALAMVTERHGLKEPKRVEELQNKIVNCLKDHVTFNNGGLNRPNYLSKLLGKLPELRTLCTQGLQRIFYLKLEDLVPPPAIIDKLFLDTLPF

For `Nc1cccc(-c2ccc3nc(C(=O)c4ccccc4)cn3c2)n1` [Compound 1, [6-(6-Aminopyridin-2-yl)imidazo[1,2-a]pyridin-2-yl](phenyl)-methanone], a half-maximal response (EC50) required 0.7 nM.
As for `O=C(c1ccccc1)c1cn2cc(-c3cn[nH]c3)ccc2n1` [Compound 4, Phenyl[6-(1H-pyrazol-4-yl)imidazo[1,2-a]pyridin-2-yl]methanone], the EC50 worked out at 0.5 nM.
In the case of `O=C(c1ccccc1)c1cn2cc(-c3cccnc3)ccc2n1` [Compound 7, phenyl[(6-pyridin-3-yl)imidazo[1,2-a]pyridin-2-yl]methanone] it was 0.5 nM.

What is called EC50 is the concentration needed to bring the measured effect to its halfway point. Higher therefore signals lower potency in that assay.
